According to patent publication US20230331803A1, “CO-AGONISTS OF THE GLP-1 AND AMYLIN RECEPTORS” (priority 2020, published 2023):
Like-named read-outs stand apart in the source and are kept apart here.

Tests used:
human GLP-1 receptor = molecular target: T1, human GLP-1 receptor (Homo sapiens, UniProt P43220); experiment: Human GLP-1 receptor in vitro potency assay (CRE-luciferase reporter, BHK cells); format: cell-based
T1 construct: expressed in transfected cells; host or cells: BHK (Baby Hamster Kidney) cells, clone BHK 467-12A KZ-10, stably transfected, with CRE-luciferase reporter
Method: It is thus possible to measure GLP-1 receptor activity using a CRE-luciferase reporter gene introduced into Baby Hamster Kidney (BHK) cells co-expressing the GLP-1 receptor.
(§1) Cells were aliquoted and stored at -180° C. until use.
Plates were sealed and incubated at room temperature with gentle shaking for 30 minutes while protected from light. Luminescence was detected on a luminescence plate reader e.g. a Synergy 2 (BioTek).

[1] = molecular target: T2, human amylin receptor (hAmyR3) (Homo sapiens, UniProt O60896+P30988); experiment: Human amylin receptor in vitro potency assay (CRE-luciferase reporter, BHK cells); format: cell-based;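 also: BHK cells expressing human calcitonin receptor plus RAMP3 (amylin-3 receptor) with a CRE-luciferase reporter, agonist activity read as luminescence from cAMP-driven transcription, 7-point serial dilutions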
T2 construct: host or cells: BHK cells (Hollex-1 line: human calcitonin receptor (a) + CRE-Luc), further transfected with human RAMP3
T2 sequence (P30988 25-474): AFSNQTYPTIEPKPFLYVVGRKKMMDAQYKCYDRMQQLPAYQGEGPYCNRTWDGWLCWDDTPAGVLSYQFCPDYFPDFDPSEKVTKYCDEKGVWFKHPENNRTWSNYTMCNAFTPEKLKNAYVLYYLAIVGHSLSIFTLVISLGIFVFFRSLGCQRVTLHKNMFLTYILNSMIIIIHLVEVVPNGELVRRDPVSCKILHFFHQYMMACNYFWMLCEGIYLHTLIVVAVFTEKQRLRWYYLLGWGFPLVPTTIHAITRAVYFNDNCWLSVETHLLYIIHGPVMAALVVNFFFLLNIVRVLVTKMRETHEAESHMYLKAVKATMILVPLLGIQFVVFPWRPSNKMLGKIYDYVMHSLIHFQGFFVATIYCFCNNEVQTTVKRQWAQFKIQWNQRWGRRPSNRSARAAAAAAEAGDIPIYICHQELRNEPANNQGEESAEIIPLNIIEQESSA
T2 sequence (O60896 24-148): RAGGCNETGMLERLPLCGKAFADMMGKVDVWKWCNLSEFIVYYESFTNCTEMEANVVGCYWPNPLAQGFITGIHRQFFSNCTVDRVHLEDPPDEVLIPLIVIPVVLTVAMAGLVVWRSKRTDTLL
From the text: Activation of hAmyR3 leads to increased cellular concentrations of cAMP. Consequently, transcription is activated by promotors containing multiple copies of the cAMP response element (CRE). It is thus possible to measure hAmyR3 activity using a CRE-luciferase reporter gene introduced into Baby Hamster Kidney (BHK) cells co-expressing the hAmyR3.
The cell line was further transfected with human receptor modifying protein 3 (RAMP3) using standard methods. This turns the human calcitonin receptor into a human amylin-3(a) receptor.
as §1
The plate was incubated over night at 37° C. in 5% CO2. On the day of the assay, cells were washed three times in assay buffer. Serial dilutions (7-fold dilutions, 7 concentrations pr. compound and one well containing only assay buffer) of comparator compounds and GLP-1 receptor-amylin receptor co-agonists were performed in assay buffer often starting from approximately 10-100 nM in 96-well plates and 30 µL of each concentration added to the 384-well assay plate with cells. […] The assay plate was sealed, incubated at room temperature with gentle shaking for 5 minutes followed by 30 minutes incubation without shaking while protected from light. Luminescence was detected on a luminescence plate reader e.g. a Synergy 2 (BioTek).

T1 sequence (P43220 24-463): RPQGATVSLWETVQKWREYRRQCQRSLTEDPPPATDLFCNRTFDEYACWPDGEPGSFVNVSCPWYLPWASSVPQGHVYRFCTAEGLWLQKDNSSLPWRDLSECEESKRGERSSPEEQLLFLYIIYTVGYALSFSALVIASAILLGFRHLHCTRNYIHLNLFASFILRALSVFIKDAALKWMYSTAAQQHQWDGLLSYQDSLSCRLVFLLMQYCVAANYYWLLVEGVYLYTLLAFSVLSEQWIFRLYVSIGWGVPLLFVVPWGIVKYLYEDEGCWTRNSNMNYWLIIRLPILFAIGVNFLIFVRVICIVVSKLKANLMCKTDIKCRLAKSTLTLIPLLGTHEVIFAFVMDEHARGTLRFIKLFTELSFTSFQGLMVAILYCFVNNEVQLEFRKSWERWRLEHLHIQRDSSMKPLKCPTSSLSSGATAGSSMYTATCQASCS

Compound | EC50 (human GLP-1 receptor; Table 4a, BHK cells expressing human GLP-1R, CRE-Luc, 3 hours, read-out: Human GLP-1R potency [EC50 (pM)]) | EC50 ([1]; Table 4a, BHK hAmyR3/CRE-Luc cells, 3 hours, read-out: Human AmyR3 potency [EC50 (pM)]) | EC50 (human GLP-1 receptor) | EC50 [1]
CC[C@H](C)[C@H](NC(=O)[C@H](Cc1ccccc1)NC(=O)[C@H](CCC(=O)O)NC(=O)[C@H](CCCNC(=N)N)NC(=O)[C@H](C)NC(=O)[C@H](C)NC(=O)[C@H](CCC(N)=O)NC(=O)[C@H](CCC(=O)O)NC(=O)[C@H](CCC(=O)O)NC(=O)[C@H](CC(C)C)NC(=O)[C@H](Cc1ccc(O)cc1)NC(=O)[C@H](CO)NC(=O)[C@H](CO)NC(=O)[C@H](CCCCNC(=O)COCCOCCNC(=O)COCCOCCNC(=O)CC[C@H](NC(=O)[C@H]1CC[C@H](CNC(=O)CCCCCCCCCCCCCCCCCCC(=O)O)CC1)C(=O)O)NC(=O)[C@H](CC(=O)O)NC(=O)[C@H](CO)NC(=O)[C@@H](NC(=O)[C@H](Cc1ccccc1)NC(=O)[C@@H](NC(=O)CNC(=O)[C@H](CCC(=O)O)NC(=O)C(C)(C)NC(=O)[C@@H](N)Cc1c[nH]cn1)[C@@H](C)O)[C@@H](C)O)C(=O)N[C@@H](C)C(=O)N[C@@H](Cc1c[nH]c2ccccc12)C(=O)N[C@@H](CC(C)C)C(=O)N[C@H](C(=O)N[C@@H](CCCNC(=N)N)C(=O)NCC(=O)N[C@@H](CCCNC(=N)N)C(=O)NCC(=O)NCC(=O)NCC(=O)NCC(=O)N[C@@H](CCC(=O)O)C(=O)N[C@@H](C)C(=O)N[C@@H](CO)C(=O)N[C@@H](CCC(=O)O)C(=O)N[C@@H](CC(C)C)C(=O)N[C@@H](CO)C(=O)N[C@H](C(=O)N[C@@H](C)C(=O)N[C@@H](C)C(=O)N[C@@H](CC(C)C)C(=O)NCC(=O)N[C@@H](CCCNC(=N)N)C(=O)N[C@@H](CC(C)C)C(=O)N[C@@H](CO)C(=O)N[C@@H](C)C(=O)N[C@@H](CCC(=O)O)C(=O)N[C@@H](CC(C)C)C(=O)N[C@@H](Cc1c[nH]cn1)C(=O)N[C@@H](CCC(=O)O)C(=O)N[C@@H](CC(C)C)C(=O)N[C@@H](C)C(=O)N[C@H](C(=O)N[C@@H](CC(C)C)C(=O)N1CCC[C@H]1C(=O)N[C@@H](CCCNC(=N)N)C(=O)N[C@H](C(=O)N[C@@H](CCC(=O)O)C(=O)N[C@H](C(=O)NCC(=O)N[C@@H](CO)C(=O)NCC(=O)N[C@@H](CO)C(=O)N1CCC[C@H]1C(N)=O)[C@@H](C)O)[C@@H](C)O)[C@@H](C)O)[C@@H](C)O)C(C)C [Compound 0266] | 6.3 pM | 8.5 pM | – | –
CC[C@H](C)[C@H](NC(=O)[C@H](Cc1ccccc1)NC(=O)[C@H](CCC(=O)O)NC(=O)[C@H](CCCNC(=N)N)NC(=O)[C@H](C)NC(=O)[C@H](C)NC(=O)[C@H](CCC(N)=O)NC(=O)[C@H](CCC(=O)O)NC(=O)[C@H](CCC(=O)O)NC(=O)[C@H](CC(C)C)NC(=O)[C@H](Cc1ccc(O)cc1)NC(=O)[C@H](CO)NC(=O)[C@H](CO)NC(=O)[C@H](CCCCNC(=O)COCCOCCNC(=O)COCCOCCNC(=O)CC[C@H](NC(=O)CCCCCCCCCCCCCCCCC(=O)O)C(=O)O)NC(=O)[C@H](CC(=O)O)NC(=O)[C@H](CO)NC(=O)[C@@H](NC(=O)[C@H](Cc1ccccc1)NC(=O)[C@@H](NC(=O)CNC(=O)[C@H](CCC(=O)O)NC(=O)[C@H](Cc1c[nH]c2ccccc12)NC(=O)[C@@H](N)Cc1c[nH]cn1)[C@@H](C)O)[C@@H](C)O)C(=O)N[C@@H](CCC(=O)O)C(=O)N[C@@H](Cc1c[nH]c2ccccc12)C(=O)N[C@@H](CC(C)C)C(=O)N[C@H](C(=O)N[C@@H](CCCNC(=N)N)C(=O)NCC(=O)N[C@@H](CCCNC(=N)N)C(=O)NCC(=O)N[C@@H](CCC(=O)O)C(=O)N[C@@H](C)C(=O)N[C@@H](CO)C(=O)N[C@@H](CCC(=O)O)C(=O)N[C@@H](CC(C)C)C(=O)N[C@@H](CO)C(=O)N[C@H](C(=O)N[C@@H](C)C(=O)N[C@@H](C)C(=O)N[C@@H](CC(C)C)C(=O)NCC(=O)N[C@@H](CCCNC(=N)N)C(=O)N[C@@H](CC(C)C)C(=O)N[C@@H](CO)C(=O)N[C@@H](C)C(=O)N[C@@H](CCC(=O)O)C(=O)N[C@@H](CC(C)C)C(=O)N[C@@H](Cc1c[nH]cn1)C(=O)N[C@@H](CCC(=O)O)C(=O)N[C@@H](CC(C)C)C(=O)N[C@@H](C)C(=O)N[C@H](C(=O)N[C@@H](CC(C)C)C(=O)N1CCC[C@H]1C(=O)N[C@@H](CCCNC(=N)N)C(=O)N[C@H](C(=O)N[C@@H](CCC(=O)O)C(=O)N[C@H](C(=O)NCC(=O)N[C@@H](CO)C(=O)NCC(=O)N[C@@H](CO)C(=O)N1CCC[C@H]1C(N)=O)[C@@H](C)O)[C@@H](C)O)[C@@H](C)O)[C@@H](C)O)C(C)C [Compound 0273] | – | – | 24.9 pM | 18 pM
